{"source": "patent US20230373984A1", "about": "“CRYSTALLINE FORM I OF MELANOCORTIN RECEPTOR AGONIST COMPOUND AND PREPARATION METHOD THEREFOR” (LG CHEM, LTD., priority 2020, published 2023)", "key": {"[1]": {"test": "Stability assessment: storage for 4 weeks, HPLC analysis", "type": "physicochemical", "conditions": "stored at room temperature"}, "[2]": {"test": "Stability assessment: storage for 4 weeks, HPLC analysis", "type": "physicochemical", "conditions": "for Stability assessment (HPLC), Open ACC: open state, accelerated condition (40° C., 75% RH); for Stability assessment (HPLC), Closed STR: sealed state, harsh condition, oven at 80° C.", "method": "About 10-30 mg of the sample was stored for 4 weeks in an open state under the accelerated condition (40° C., 75% RH) or in a sealed state under the harsh condition in an oven at 80° C."}}, "note": "“Also recorded” adds a separate entry of the source.", "data": [{"smiles": "CC(C)C(=O)N([C@H]1C[C@@H](C(=O)N2CCOCC2)N(C(=O)[C@@H]2CN(C(C)(C)C)C[C@H]2c2ccc(Cl)cc2)C1)[C@H]1CC[C@@H](C)CC1.Cl", "note": "[Example 1, N-((3S, 5S)-1-((3S,4R)-1-(Tert-Butyl)-4-(4-Chlorophenyl) Pyrrolidine-3-Carbonyl)-5-(Morpholine-4-Carbonyl) Pyrrolidin-3-yl)-N-((1s,4R)-4-Methylcyclohexyl) Isobutyramide Hydrochloride]", "values": [{"measurement": "Stability assessment (HPLC), Closed RT", "setting": "[1]; Week 2, in % (unit assumed)", "result": 97.99}, {"measurement": "Stability assessment (HPLC), Closed RT", "setting": "[1]; Week 4, in % (unit assumed)", "result": 97.74}, {"measurement": "Stability assessment (HPLC)", "setting": "[2]; Initial, in % (unit assumed)", "result": 98.72}, {"measurement": "chemical stability (result in words)", "setting": "[2]; accelerated condition (40° C., 75% RH) and harsh condition (80° C.), 4 weeks, listed as crystalline form I, Hydrochloride", "result": "showed chemical stability for 4 weeks; also recorded: exhibited chemical stability for 4 weeks"}, {"measurement": "Stability assessment (HPLC), Open ACC", "setting": "[2]; Day 3, in % (unit assumed)", "result": 98.22}, {"measurement": "Stability assessment (HPLC), Open ACC", "setting": "[2]; Week 1, in % (unit assumed)", "result": 98.45}, {"measurement": "Stability assessment (HPLC), Open ACC", "setting": "[2]; Week 2, in % (unit assumed)", "result": 98.40}, {"measurement": "Stability assessment (HPLC), Open ACC", "setting": "[2]; Week 4, in % (unit assumed)", "result": 98.32}, {"measurement": "Stability assessment (HPLC), Closed STR", "setting": "[2]; Day 3, in % (unit assumed)", "result": 97.35}, {"measurement": "Stability assessment (HPLC), Closed STR", "setting": "[2]; Week 1, in % (unit assumed)", "result": 97.28}, {"measurement": "Stability assessment (HPLC), Closed STR", "setting": "[2]; Week 2, in % (unit assumed)", "result": 97.82}, {"measurement": "Stability assessment (HPLC), Closed STR", "setting": "[2]; Week 4, in % (unit assumed)", "result": 97.30}]}]}
